Values joined by “and” are separate entries in the source; they are usually repeats but may differ in a detail not shown here. Identical values can stand only once. Inconclusive results and toxic doses are left out. Rule for the calls: active = survival T/C of 150% or more; inactive = T/C below 125% in these data.
Tested on: P388 leukemia ip, CD2F1 mice, survival T/C
Assay: NCI In Vivo Anticancer Drug Screen. Data for tumor model P388 Leukemia (intraperitoneal) in CD2F1 (CDF1) mice
Details: endpoint: median survival time, higher = longer survival
Summary of the method: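 Mice carrying the transplanted tumor received test compound or vehicle. Survival was recorded in each group, and the value is the treated-group measurement divided by that of the vehicle-treated control group.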

[1] = dose: 50.0 mg/kg/injection, schedule: Q01DX009 (ip), vehicle: saline with Tween-80
[2] = dose: 100.0 mg/kg/injection, schedule: Q01DX009 (ip), vehicle: saline with Tween-80
[3] = dose: 200.0 mg/kg/injection, schedule: Q01DX009 (ip), vehicle: saline with Tween-80
[4] = dose: 50.0 mg/kg/injection, schedule: Q01DX005 (ip), vehicle: Klucel (hydroxypropylcellulose) (HPC)
[5] = dose: 100.0 mg/kg/injection, schedule: Q01DX005 (ip), vehicle: Klucel (hydroxypropylcellulose) (HPC)
[6] = dose: 200.0 mg/kg/injection, schedule: Q01DX005 (ip), vehicle: Klucel (hydroxypropylcellulose) (HPC)
[7] = dose: 50.0 mg/kg/injection, schedule: Q01DX005 (ip), vehicle: saline with Tween-80
[8] = dose: 100.0 mg/kg/injection, schedule: Q01DX005 (ip), vehicle: saline with Tween-80
[9] = dose: 200.0 mg/kg/injection, schedule: Q01DX005 (ip), vehicle: saline with Tween-80
[10] = dose: 60.0 mg/kg/injection, schedule: Q01DX005 (ip), vehicle: saline with Tween-80
[11] = dose: 120.0 mg/kg/injection, schedule: Q01DX005 (ip), vehicle: saline with Tween-80
[12] = dose: 240.0 mg/kg/injection, schedule: Q01DX005 (ip), vehicle: saline with Tween-80

Measured: T/C

CCOC(=O)Cn1ccnc1[N+](=O)[O-]
inactive: dose: 12.5 mg/kg/injection, schedule: Q01DX009 (ip), vehicle: distilled water + Tween-80 102 % of control | dose: 25.0 mg/kg/injection, schedule: Q01DX009 (ip), vehicle: distilled water + Tween-80 97 % of control | dose: 50.0 mg/kg/injection, schedule: Q01DX009 (ip), vehicle: distilled water + Tween-80 100 % of control | dose: 100.0 mg/kg/injection, schedule: Q01DX009 (ip), vehicle: distilled water + Tween-80 102 % of control | dose: 200.0 mg/kg/injection, schedule: Q01DX009 (ip), vehicle: distilled water + Tween-80 109 % of control

COCC(=O)C1(O)Cc2c(O)c3c(c(O)c2C(O)C1)C(=O)c1c(OC)cccc1C3=O (stereo unspecified)
inactive: dose: 1.56 mg/kg/injection, schedule: Q01DX009 (ip), vehicle: other 92 % of control | dose: 3.13 mg/kg/injection, schedule: Q01DX009 (ip), vehicle: other 101 % of control | dose: 6.25 mg/kg/injection, schedule: Q01DX009 (ip), vehicle: other 101 % of control | dose: 12.5 mg/kg/injection, schedule: Q01DX009 (ip), vehicle: other 94 % of control | dose: 25.0 mg/kg/injection, schedule: Q01DX009 (ip), vehicle: other 92 % of control

Cc1ccc(NC(=S)NNC(=O)CN2C(=O)c3ccccc3C2=O)cc1
inactive: dose: 12.5 mg/kg/injection, schedule: Q01DX001 (ip), vehicle: Klucel (hydroxypropylcellulose) (HPC) 93 % of control | dose: 25.0 mg/kg/injection, schedule: Q01DX001 (ip), vehicle: Klucel (hydroxypropylcellulose) (HPC) 93 % of control | dose: 50.0 mg/kg/injection, schedule: Q01DX001 (ip), vehicle: Klucel (hydroxypropylcellulose) (HPC) 89 % of control and 90 % of control

CN(C)Cc1c(N=Nc2ccc3ccc4cccc5ccc2c3c45)[nH]c2ccccc12
inactive: [1] 103 % of control | [2] 115 % of control | [3] 115 % of control

C/C=C(\C)c1cc(OC)c(C)c(=O)o1
inactive: dose: 25.0 mg/kg/injection, schedule: Q04DX003 (ip), vehicle: Klucel (hydroxypropylcellulose) (HPC) 118 % of control | dose: 50.0 mg/kg/injection, schedule: Q04DX003 (ip), vehicle: Klucel (hydroxypropylcellulose) (HPC) 116 % of control | dose: 100.0 mg/kg/injection, schedule: Q04DX003 (ip), vehicle: Klucel (hydroxypropylcellulose) (HPC) 114 % of control

C1CN=C(N2CCCC2)C1
inactive: dose: 12.5 mg/kg/injection, schedule: Q01DX009 (ip), vehicle: saline with Tween-80 103 % of control | dose: 25.0 mg/kg/injection, schedule: Q01DX009 (ip), vehicle: saline with Tween-80 94 % of control | [1] 101 % of control and 90 % of control

COC(=O)C1=C(C(=O)OC)P2(C)(C)OC(c3ccccc3)CN2C1(c1ccccc1)c1ccccc1 (stereo unspecified)
inactive: [4] 98 % of control | [5] 100 % of control | [6] 91 % of control

O=C1C(Cl)=C(Sc2nc3ccccc3s2)C(=O)c2ccccc21
inactive: dose: 12.5 mg/kg/injection, schedule: Q01DX005 (ip), vehicle: saline with Tween-80 100 % of control | dose: 25.0 mg/kg/injection, schedule: Q01DX005 (ip), vehicle: saline with Tween-80 100 % of control

CC(C)(C)SC(=S)SCC(=O)c1cc2ccccc2o1
inactive: [7] 100 % of control | [8] 93 % of control | [9] 93 % of control

CC1=CC[C@@H]2C(C#N)C3(CCC12C)OCCO3 (stereo partly specified)
inactive: [7] 92 % of control | [8] 94 % of control | [9] 94 % of control

COc1cc(C2C(C(C)=O)=C(C)Oc3cc4c(cc32)OCO4)cc(OC)c1O (stereo unspecified)
inactive: dose: 15.0 mg/kg/injection, schedule: Q01DX005 (ip), vehicle: saline with Tween-80 91 % of control | dose: 30.0 mg/kg/injection, schedule: Q01DX005 (ip), vehicle: saline with Tween-80 91 % of control | [10] 86 % of control and 90 % of control

Nc1ncnc2nc(Br)[nH]c12
inactive: [4] 111 % of control | [5] 95 % of control | [6] 106 % of control

O=C1CS(=O)(=O)CN1N1CS(=O)(=O)CC1=O
inactive: [7] 102 % of control | [8] 98 % of control | [9] 98 % of control

O=C(NC(Cc1ccccc1)C(=O)CCC(=O)N1CCCC1C(=O)O)c1ccccc1 (stereo unspecified)
inactive: dose: 50.0 mg/kg/injection, schedule: Q04DX002 (ip), vehicle: saline with Tween-80 103 % of control | dose: 100.0 mg/kg/injection, schedule: Q04DX002 (ip), vehicle: saline with Tween-80 101 % of control | dose: 200.0 mg/kg/injection, schedule: Q04DX002 (ip), vehicle: saline with Tween-80 101 % of control | dose: 400.0 mg/kg/injection, schedule: Q04DX002 (ip), vehicle: saline with Tween-80 101 % of control

CC(/C=C/c1ccccc1)=N\Nc1ccccc1
inactive: [1] 118 % of control | [2] 110 % of control and 112 % of control | dose: 132.0 mg/kg/injection, schedule: Q01DX009 (ip), vehicle: saline with Tween-80 100 % of control | [3] 100 % of control and 110 % of control and 121 % of control | dose: 300.0 mg/kg/injection, schedule: Q01DX009 (ip), vehicle: saline with Tween-80 107 % of control | dose: 400.0 mg/kg/injection, schedule: Q01DX009 (ip), vehicle: saline with Tween-80 106 % of control

COC(=O)C(=O)c1c(C(=O)OC)nc2nnc(N)n2c1-c1ccc(O)c(OC)c1
inactive: [10] 92 % of control | [11] 94 % of control | [12] 94 % of control

CCOC(=O)C1C(COCc2ccccc2)C2CCC1(OC)C=C2C (stereo unspecified)
inactive: [7] 99 % of control | [8] 97 % of control | [9] 104 % of control

COc1ccc(C(=O)CCN(C)C)c2ccccc12
inactive: dose: 50.0 mg/kg/injection, schedule: Q01DX005 (ip), vehicle: saline 102 % of control | dose: 100.0 mg/kg/injection, schedule: Q01DX005 (ip), vehicle: saline 100 % of control | dose: 200.0 mg/kg/injection, schedule: Q01DX005 (ip), vehicle: saline 93 % of control

CC(=O)c1c(C)cc2cc(O)cc(OC3OC(CO)C(O)C(O)C3O)c2c1O (stereo unspecified)
inactive: dose: 1.5 mg/kg/injection, schedule: Q01DX005 (ip), vehicle: saline + alcohol 96 % of control | dose: 3.0 mg/kg/injection, schedule: Q01DX005 (ip), vehicle: saline + alcohol 103 % of control | dose: 6.0 mg/kg/injection, schedule: Q01DX005 (ip), vehicle: saline + alcohol 92 % of control | dose: 12.0 mg/kg/injection, schedule: Q01DX005 (ip), vehicle: saline + alcohol 108 % of control and 94 % of control | dose: 24.0 mg/kg/injection, schedule: Q01DX005 (ip), vehicle: saline + alcohol 100 % of control | dose: 48.0 mg/kg/injection, schedule: Q01DX005 (ip), vehicle: saline + alcohol 99 % of control

COc1cc(=O)[nH]c(-c2ccccc2)c1OC
inactive: [10] 99 % of control | [11] 99 % of control | [12] 99 % of control

CC1(c2ccco2)NC(=O)NC1=O (stereo unspecified)
inactive: dose: 100.0 mg/kg/injection, schedule: Q04DX003 (ip), vehicle: saline with Tween-80 90 % of control | dose: 200.0 mg/kg/injection, schedule: Q04DX003 (ip), vehicle: saline with Tween-80 100 % of control | dose: 400.0 mg/kg/injection, schedule: Q04DX003 (ip), vehicle: saline with Tween-80 90 % of control

CCC[CH2][Sn]1([CH2]CCC)[O]C(=O)c2c(Cl)c(Cl)c(Cl)c(Cl)c2C(=O)[O]1
inactive: dose: 1.56 mg/kg/injection, schedule: Q01DX005 (ip), vehicle: saline with Tween-80 110 % of control and 115 % of control | dose: 3.13 mg/kg/injection, schedule: Q01DX005 (ip), vehicle: saline with Tween-80 119 % of control and 120 % of control | dose: 6.25 mg/kg/injection, schedule: Q01DX005 (ip), vehicle: saline with Tween-80 119 % of control and 120 % of control
